Source: patent US7604949B2, “Methods and compositions that affect melanogenesis” (New York University, priority 1999, dated 2009)

Columns and labels:
melan-p1 cells [1] = experiment: Secretion of tyrosinase into medium of melan-p1 cells with protease inhibitor; assay type: cell-based, mouse
Experimental: (§1) (A) Melan-p1 cells incubated in low (0.03 mM) tyrosine and high (0.3 mM) tyrosine (TYR) were treated for 48 hours with increasing concentrations of the protease inhibitor E64 (μM). The tyrosinase activity in the media is expressed as a percentage of total activity in the extract and medium. (B) The concentration of melanin was determined by solubilizing the cell pellet and measuring the absorbance at 470 nm.
Tyrosinase is a type I membrane protein anchored in the membrane, and it is thus likely that proteolysis, which leads to the clipping of the tail, is required for secretion. The truncated protein would not be detected by αPEP7, which is directed against the tail, although the catalytic domains would remain functional. We, therefore, examined the effects of a series of protease inhibitors on the secretion of tyrosinase by melan-a and melan-p1 cells.
(§2) If proteolysis and secretion of tyrosinase were the precipitating factor in the misrouting of tyrosinase, then E64 should increase melanin accumulation in melan-p1 cells. […] A range of E64 concentrations was tested at low (0.03 mM) and high (0.3 mM) tyrosine.

melan-p1 cells [2] = experiment: Melanin content of melan-p1 cells with protease inhibitor; assay type: cell-based, mouse; settings: melan-p1, high concentrations of tyrosine
Experimental: as §1, §2

[3] = tested on: amelanotic melanoma cells that express tyrosinase; settings: nanomolar concentrations; cited from earlier work
B16F10 melanoma cells = experiment: Melanin content after ATPase inhibitor treatment, B16F10; assay type: cell-based, mouse; settings: 36 hours
Experimental: (§3) Wild type melan-a (a/a, P/P), an immortalized melanocyte line derived from C57BL6J mice; melan-p1 melanocytes (a/a, p^cp/p^25H), an immortalized line derived from p-null mice; melan-p1 (P10), a melan-p1 line stably transfected with an expression plasmid carrying the pink-eyed dilution gene; B16, an amelanotic mouse melanoma cell line; and B16F10, a slightly pigmented mouse melanoma cell line, were used in this study.
(§4) Cells were cultured in RMPI-1640 (Sigma, St. Louis, Mo.) supplemented with 10% fetal calf serum, 5% sodium pyruvate, 5% glutamate, 5 units/ml penicillin, 5 μg/ml streptomycin, 1% non-essential amino acids and 200 nM 12-O-tetradecanoyl phorbol 13-acetate for 24 hours The medium was than replaced with RPMI containing either 0, 1, 2 or 2.5 μM bafilomycin A1 (Sigma, St. Louis, Mo.) or 0, 0.5 or 1.0 μM concanamycin A (Sigma, St. Louis, Mo.). […] The supernatant was removed and protein content determined using a protein assay kit (BioRad, Richmond, Calif.).
(§5) The melanin content in the pellet was determined following removal of the supernatant Each sample was treated with 0.5 ml ethanol:ether (1:1), vortexed and incubated at room temperature for 10 minutes. […] The sample was then transferred to a 96-well plate and the optical density was read at 490 nm. […]

[4] = tested on: Melan-p p-null melanocytes; experiment: Melanin content after ATPase inhibitor treatment, Melan-p; assay type: cell-based, mouse; settings: 36 hours
Experimental: as §3, §4, §5

p-glycoprotein ATPase = p-glycoprotein ATPase (Cricetulus griseus, UniProt P21448); settings: micromolar concentrations; cited from earlier work
Melan-p (P10) cells = experiment: Melanin content after ATPase inhibitor treatment, Melan-p (P10); assay type: cell-based, mouse; settings: 36 hours
Experimental: as §3, §4, §5

[5] = tested on: Melan-a wild type melanocytes; experiment: Melanin content after ATPase inhibitor treatment, Melan-a; assay type: cell-based, mouse; settings: 36 hours
Experimental: as §3, §4, §5

B16 melanoma cells = experiment: Melanin content after ATPase inhibitor treatment, B16; assay type: cell-based, mouse; settings: 36 hours
Experimental: as §3, §4, §5

tyrosinase [6] = molecular target: T1, tyrosinase (Mus musculus, UniProt P11344); experiment: Tyrosinase activity of melan-a cell extracts (radiometric tyrosine hydroxylase assay); assay type: cell-based; settings: melan-a cells, 48 hours, vs untreated
T1 sequence (P11344 19-533): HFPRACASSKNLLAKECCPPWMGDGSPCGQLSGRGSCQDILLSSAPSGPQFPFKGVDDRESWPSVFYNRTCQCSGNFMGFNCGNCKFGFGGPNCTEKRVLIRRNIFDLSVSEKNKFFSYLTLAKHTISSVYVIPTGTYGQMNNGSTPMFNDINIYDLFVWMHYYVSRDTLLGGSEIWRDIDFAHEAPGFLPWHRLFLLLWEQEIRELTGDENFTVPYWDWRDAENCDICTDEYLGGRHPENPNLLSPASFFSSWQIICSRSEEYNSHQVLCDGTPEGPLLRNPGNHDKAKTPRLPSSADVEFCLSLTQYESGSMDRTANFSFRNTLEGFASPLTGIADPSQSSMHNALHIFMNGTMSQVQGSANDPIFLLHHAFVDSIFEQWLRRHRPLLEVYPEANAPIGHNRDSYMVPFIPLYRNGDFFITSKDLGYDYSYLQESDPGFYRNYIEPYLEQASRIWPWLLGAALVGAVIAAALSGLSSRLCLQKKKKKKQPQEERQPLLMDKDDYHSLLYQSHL

P protein = molecular target: T2, P protein (Mus musculus, UniProt Q62052); experiment: Tyrosinase activity of extracts of COS cells transfected with tyrosinase-encoding and P protein-encoding genes (T+P); assay type: cell-based; settings: vs untreated
T2 construct: expressed in transfected cells; host or cells: COS cells (monkey kidney), co-transfected with the tyrosinase vector
T2 sequence (Q62052 1-833): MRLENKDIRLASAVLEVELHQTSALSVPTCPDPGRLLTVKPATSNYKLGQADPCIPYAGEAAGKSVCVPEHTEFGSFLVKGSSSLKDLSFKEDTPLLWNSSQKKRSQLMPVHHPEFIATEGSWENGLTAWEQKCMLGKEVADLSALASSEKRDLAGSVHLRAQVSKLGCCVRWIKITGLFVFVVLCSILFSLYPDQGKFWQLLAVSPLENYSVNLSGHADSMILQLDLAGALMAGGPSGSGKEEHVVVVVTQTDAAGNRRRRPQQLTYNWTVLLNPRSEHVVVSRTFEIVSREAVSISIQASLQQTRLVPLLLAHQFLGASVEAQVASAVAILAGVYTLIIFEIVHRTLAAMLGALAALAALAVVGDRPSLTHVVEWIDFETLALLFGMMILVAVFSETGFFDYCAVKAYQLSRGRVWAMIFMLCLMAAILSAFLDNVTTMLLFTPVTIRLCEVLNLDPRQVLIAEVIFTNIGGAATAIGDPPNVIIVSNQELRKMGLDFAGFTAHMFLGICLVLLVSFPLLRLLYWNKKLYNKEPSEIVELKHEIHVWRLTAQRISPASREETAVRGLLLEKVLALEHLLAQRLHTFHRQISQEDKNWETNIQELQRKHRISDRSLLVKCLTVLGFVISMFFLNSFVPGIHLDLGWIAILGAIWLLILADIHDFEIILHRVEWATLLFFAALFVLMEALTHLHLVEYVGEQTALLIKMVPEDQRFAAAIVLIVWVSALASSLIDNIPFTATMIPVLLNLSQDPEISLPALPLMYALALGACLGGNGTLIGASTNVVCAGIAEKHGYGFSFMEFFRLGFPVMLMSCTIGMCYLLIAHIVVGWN
From the text: (§6) Expression vectors were constructed to express P protein and tyrosinase genes in cultured cells. Specifically, the coding sequence for tyrosinase was removed as a HindIII-EcoRI fragment from clone TYBS (Yokohama et al., 1990, Nucl. Acids. Res. 18:7293-7298) and cloned into the HindIII/EcoRI sites of pcDNA I/lamp (Invitrogen, Calif.). Coding sequence for the P protein was removed as a BamHI-EcoRI fragment from MC2701 (Gardner et al., 1992, supra) and cloned into the BamHI/EcoRV sites of pcDNA3 and pcDNA3.1/V5/His-TOPO (Invitrogen, Calif.). COS cells were transfected with the pcDNA1-based plasmids and FuGENE™ 6 (Roche Molecular Biochemicals, Indianapolis, Ind.) as transfection agents for 48 hours. Cells were transformed with: (i) the vector alone; (ii) the vector carrying a tyrosinase-encoding gene; (iii) the vector carrying a P protein-encoding gene; or (iv) vectors carrying a tyrosinase-encoding gene and a P protein-encoding gene. Transformed cells were washed and extracted as above. Tyrosinase activity was then measured as above. Tyrosinase assays were performed on 60 micrograms of cell protein.
(§7) The tyrosinase activity of cell extracts was determined as above.

tyrosinase [7] = molecular target: T1, tyrosinase; experiment: Tyrosinase activity of extracts of COS cells transfected with tyrosinase-encoding gene alone (V+T); assay type: cell-based; parameters: expressed in transfected cells; host or cells: COS cells (monkey kidney); settings: vs untreated
From the text: as §6, §7

[8] = tested on: late endosomal/lysosomal cholesterol trafficking; settings: cited from earlier work
[9] = bafilomycin A1 0, 1, 2 or 2.5 μM
[10] = concanamycin A 0, 0.5 or 1.0 μM

p-glycoprotein ATPase, sequence (P21448 whole entry): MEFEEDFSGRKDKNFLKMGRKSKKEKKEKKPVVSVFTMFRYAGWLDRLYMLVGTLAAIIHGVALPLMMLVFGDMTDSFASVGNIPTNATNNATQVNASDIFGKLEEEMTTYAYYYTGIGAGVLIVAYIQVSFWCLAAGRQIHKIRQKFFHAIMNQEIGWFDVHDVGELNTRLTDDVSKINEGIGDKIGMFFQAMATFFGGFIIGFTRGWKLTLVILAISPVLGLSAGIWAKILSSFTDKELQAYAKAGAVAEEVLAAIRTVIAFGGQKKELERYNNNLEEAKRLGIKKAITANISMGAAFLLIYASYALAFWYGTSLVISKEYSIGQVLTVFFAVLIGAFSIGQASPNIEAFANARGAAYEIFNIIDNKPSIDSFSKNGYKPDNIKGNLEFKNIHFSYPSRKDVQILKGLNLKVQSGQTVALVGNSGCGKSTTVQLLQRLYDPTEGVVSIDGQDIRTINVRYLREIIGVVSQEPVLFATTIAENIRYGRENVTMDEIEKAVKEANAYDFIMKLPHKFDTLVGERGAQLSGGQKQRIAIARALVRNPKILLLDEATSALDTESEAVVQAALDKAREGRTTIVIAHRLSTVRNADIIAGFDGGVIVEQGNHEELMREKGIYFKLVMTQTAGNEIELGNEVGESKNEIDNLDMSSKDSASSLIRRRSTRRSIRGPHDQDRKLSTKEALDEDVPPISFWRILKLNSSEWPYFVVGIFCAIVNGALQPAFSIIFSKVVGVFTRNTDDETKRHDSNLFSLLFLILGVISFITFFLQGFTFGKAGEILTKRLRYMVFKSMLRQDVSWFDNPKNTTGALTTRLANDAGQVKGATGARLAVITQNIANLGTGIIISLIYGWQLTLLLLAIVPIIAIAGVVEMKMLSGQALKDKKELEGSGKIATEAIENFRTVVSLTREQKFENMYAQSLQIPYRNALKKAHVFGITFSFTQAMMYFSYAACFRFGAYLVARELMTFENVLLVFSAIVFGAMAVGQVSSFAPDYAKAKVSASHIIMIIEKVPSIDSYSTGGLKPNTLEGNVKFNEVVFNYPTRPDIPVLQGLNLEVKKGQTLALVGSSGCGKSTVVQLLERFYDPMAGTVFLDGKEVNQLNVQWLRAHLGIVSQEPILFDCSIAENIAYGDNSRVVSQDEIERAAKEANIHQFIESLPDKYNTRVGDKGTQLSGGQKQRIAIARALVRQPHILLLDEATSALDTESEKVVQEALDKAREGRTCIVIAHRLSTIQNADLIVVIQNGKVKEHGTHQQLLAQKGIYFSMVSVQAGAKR

## CC(C)C[C@H](NC(=O)[C@H]1O[C@@H]1C(=O)O)C(=O)NCCCCN=C(N)N [E64]
melan-p1 cells [1]; melan-p1, 0.03 mM tyrosine, 12.5 μM E64, 48 hours (untreated 7.1%)
  tyrosinase activity in the media as percentage of total activity in extract and medium: 4.0%
melan-p1 cells [1]; melan-p1, 0.03 mM tyrosine, 25 μM E64, 48 hours (untreated 7.1%)
  tyrosinase activity in the media as percentage of total activity in extract and medium: 3.8%
melan-p1 cells [1]; melan-p1, 0.3 mM tyrosine, E64, 48 hours (untreated 6.5%)
  tyrosinase activity in the media as percentage of total activity in extract and medium: 3.9%
melan-p1 cells [2]
  intracellular melanin production: reduced intracellular melanin production

## CO/C1=C\C(C)=C\[C@@H](C)[C@@H](O)[C@@H](C)C/C(C)=C/C=C/[C@H](OC)[C@@H]([C@@H](C)[C@@H](O)[C@H](C)[C@@]2(O)C[C@@H](O)[C@H](C)[C@@H](C(C)C)O2)OC1=O [bafilomycin A1]
[3]
  activation of melanogenesis: activate melanogenesis
B16F10 melanoma cells; B16F10, bafilomycin A1 0, 1, 2 or 2.5 μM
  pigmentation: demonstrates increasing pigmentation which diminishes at higher concentrations
[4]; [9]
  melanin levels: increased with an increase in bafilomycin A1 concentration
p-glycoprotein ATPase
  inhibition of p-glycoprotein ATPase activity: inhibit p-glycoprotein ATPase activity at micromolar concentrations
Melan-p (P10) cells; [9]
  melanin content: initially increases in the presence of μM concentrations of bafilomycin A1 but drops at the highest concentration tested
[5]; [9]
  melanin content: initially increases in the presence of μM concentrations of bafilomycin A1 but drops at the highest concentration tested
B16 melanoma cells; B16, bafilomycin A1 0, 1, 2 or 2.5 μM
  melanin content: does not respond

## CN1[C@@H]2CC[C@H]1C[C@@H](OC(c1ccccc1)c1ccccc1)C2 [benztropine]
Tyrosinase [6]; 10 micromolar compound
  tyrosinase activity of cell extracts: greater tyrosinase activities than untreated cells
P protein; 10 micromolar compound
  tyrosinase activity of extracts, cells expressing both P protein and tyrosinase: did not have an appreciable effect
Tyrosinase [7]; 10 micromolar compound
  tyrosinase activity of extracts, cells expressing only tyrosinase: did not have an appreciable effect

## C/C=C/[C@H]1O[C@@](O)([C@@H](C)[C@H](O)[C@H](C)[C@H]2OC(=O)/C(OC)=C/C(C)=C/[C@@H](C)[C@@H](O)[C@@H](CC)[C@@H](O)[C@H](C)C/C(C)=C/C=C/[C@@H]2OC)C[C@@H](O[C@H]2C[C@@H](O)[C@H](OC(N)=O)[C@@H](C)O2)[C@@H]1C [concanamycin A]
[3]
  activation of melanogenesis: activate melanogenesis
B16F10 melanoma cells; B16F10, concanamycin A 0, 0.5 or 1.0 μM
  pigmentation: demonstrates increasing pigmentation which diminishes at higher concentrations
[4]; [10]
  melanin levels: increase with an increase in concanamycin A concentration
p-glycoprotein ATPase
  inhibition of p-glycoprotein ATPase activity: inhibit p-glycoprotein ATPase activity at micromolar concentrations
Melan-p (P10) cells; [10]
  melanin content: is decreased
[5]; [10]
  melanin content: is decreased
B16 melanoma cells; B16, concanamycin A 0, 0.5 or 1.0 μM
  melanin content: does not respond

## C/C=C/[C@H]1O[C@@](O)([C@@H](C)[C@H](O)[C@H](C)[C@H]2OC(=O)/C(OC)=C/C(C)=C/[C@@H](C)[C@@H](O)[C@@H](C)[C@@H](O)[C@H](C)C/C(C)=C/C=C/[C@@H]2OC)C[C@@H](O[C@H]2C[C@@H](O)[C@H](OC(N)=O)[C@@H](C)O2)[C@@H]1C [concanamycin B]
p-glycoprotein ATPase
  inhibition of p-glycoprotein ATPase activity: inhibit p-glycoprotein ATPase activity at micromolar concentrations

## O=C(O)/C=C\C(=O)O.O=[N+]([O-])c1ccc2nc(N3CCNCC3)ccc2c1 [nitroquipazine, 6-nitro-2-(1-piperazinyl)-quinoline maleate]
Tyrosinase [6]; 30 micromolar compound
  tyrosinase activity of cell extracts: greater tyrosinase activities than untreated cells
P protein; 30 micromolar compound
  tyrosinase activity of extracts, cells expressing both P protein and tyrosinase: lower tyrosinase activity
Tyrosinase [7]; 30 micromolar compound
  tyrosinase activity of extracts, cells expressing only tyrosinase: lower tyrosinase activity

## CC(=O)[C@H]1CC[C@H]2[C@@H]3CCC4=CC(=O)CC[C@]4(C)[C@H]3CC[C@]12C [progesterone]
[8]
  cholesterol movement from the PM to the ER, from the late endosome/lysosome to the ER and to the PM: inhibit cholesterol movement

## CCCCCCCCCCCCC/C=C/[C@@H](O)[C@@H](N)CO [sphingosine]
[8]
  cholesterol movement from the PM to the ER, from the late endosome/lysosome to the ER and to the PM: inhibit cholesterol movement
